Results as given in patent US6613880B2, “Pipecolic acid derivatives of proline threonine amides useful for the treatment of rheumatoid arthritis” (Pharmacia Corporation, priority 1995, dated 2003).
Square brackets hold non-standard residues; d marks the D form. Peptide text beside a SMILES is read from it. * marks the point of attachment. ξ: configuration not given here. Butanoyl(3S-cHex) = C[C@@H](CC(=O)*)C1CCCCC1; Propanoyl(3-cHex) = O=C(CCC1CCCCC1)*; Thr(3ξ) = CC(O)[C@H](N)C(=O)O; Leu(ol) = CC(C)C[C@H](N)CO; Pip = O=C(O)[C@@H]1CCCCN1; NHPr = CCCN*

target: T1, DR(αβ1*0401) molecules (DR4) (Homo sapiens, UniProt P01903+P01911, A100K/A169T/F76Y/I96L/K127E/L162R/M171V/N62H/P40V/Q125Y/R42H/S133A/S149N/S66Y/V115G/V209L/W38E); experiment: Competitive Binding for DR4 (Competition Capture ELISA); details: competition with 50 nM biotinylated ML37-49 peptide for immunoaffinity purified DRB1*0401, pH 5.5, overnight at 37° C.
T1 construct: made in house
Method: Competitive Binding for DR4 (Competition Capture ELISA)
DR(αβ1*0401) molecules are affinity purified with L243 monoclonal antibody (hybridoma obtained from ATCC) using a modification of a published procedure (Gorga, J. C., et al., 1991. Res. Immunol. 142:401-407.). Duplicate samples of immunoaffinity purified DRB1*0401 molecules (0.5 μg/well) are incubated overnight at 37° C. with 50 nM biotinylated ML37-49 peptide in the presence or absence of 1 nM to 100 μM competitor peptides in 96-well polypropylene microtiter plates (Costar, Cambridge, Mass.). All dilutions are made in phosphate buffered saline, pH 5.5 containing 1% octaglucoside (Boehringher Mannheim). LB3.1 antibody (obtained from J. Strominger, Cambridge, Mass.) is plated onto flat-bottom 96-well polystyrene microtiter plates (Falcon, Becton-Dickinson, Mountainview, Calif.) in 0.1 M carbonate coating buffer, pH 9.6 overnight at 4° C. Antibody coated microtiter plates are blocked with 1% Carnation nonfat milk for 1 hr at room temperature. The plates are washed 3 times with PBS containing 0.05% Tween 20 (Biorad, Hercules, Calif.). The class II/peptide mixtures are added, incubated for 1 hr at 37° C., and washed as described above. Extravidin conjugated horseradish peroxidase (1:1000, Sigma Chemicals) is added to the wells and incubated for 30-60 min at 37° C. The plates are washed again, then incubated with o-phenylenediamine dihydrochloride and H2O2 (Sigma Chemicals, St. Louis, Mo.) in 0.5 M phosphate-citrate buffer, pH 5.0. The absorbance of each well is read at 450 nm.

| IC50 | Compound |
| --- | --- |
| 289 nM | (S)-CBA-Lys-Pec-Asp-Pro-Thr-propylamide [Example 2] |
| 116 nM | CC(C)C[C@@H](CO)NC(=O)[C@@H](NC(=O)[C@@H]1CCCN1C(=O)[C@H](CC(=O)O)NC(=O)[C@@H]1CCCCN1C(=O)[C@H](CCCCN)NC(=O)C[C@H](C)C1CCCCC1)[C@@H](C)O [Example 4, (S)-CBA-Lys-Pec-Asp-Pro-Thr-leucinol] ({Butanoyl(3S-cHex)}-K[Pip]DPT[Leu(ol)]) |
| 30 nM | CCCNC(=O)[C@@H](NC(=O)[C@@H]1CCCN1C(=O)[C@H](CC(=O)O)NC(=O)[C@@H]1CCCCN1C(=O)[C@@H](NC(=O)C[C@H](C)C1CCCCC1)C(C)C)C(C)O (stereo partly drawn) [Example 1, (S)-CBA-Val-Pec-Asp-Pro-Thr-propylamide] ({Butanoyl(3S-cHex)}-V[Pip]DP[Thr(3ξ)]-NHPr) |
| 259 nM | CCCNC(=O)[C@@H](NC(=O)[C@@H]1CCCN1C(=O)[C@H](CC(=O)O)NC(=O)[C@@H]1CCCCN1C(=O)[C@H](CCCCN)NC(=O)CCC1CCCCC1)[C@@H](C)O [Example 3, CPA-Lys-Pec-Asp-Pro-Thr-propylamide] ({Propanoyl(3-cHex)}-K[Pip]DPT-NHPr) |
